# Laboratory results taken from patent US7709444B2, “Echinocandin pharmaceutical formulations containing micelle-forming surfactants” (Pfizer Inc., priority 1999, dated 2010).
# *1 amine or outer side, *2 acyl side, *3 side chain or, on linkers, in order; H or OH if unused. Where a SMILES comes first, the peptide text is derived from it. Bridges are numbered along the chain shown (N, C = ends). [ ]: non-standard residue; d: D form. The star is where a group is joined. ξ: configuration not given here. pTerphenylCO(4''-OnC5H11) = CCCCCOc1ccc(-c2ccc(-c3ccc(C(=O)*)cc3)cc2)cc1; ξOrn(4,5-diOH) = O=C(C(CC(O)C(O)N[*:3])N[*:1])[*:2]; ξhTyr(βξ-OH,γξ-OH) = NC(C(=O)O)C(O)C(O)c1ccc(O)cc1; ξPro(3ξ-OH,4ξ-Me) = CC1CNC(C(=O)O)C1O; Hyp = O=C(O)[CH]1C[CH](O)CN1
# Legend:
# [1] = Solubility studies of Com 6(a) in surfactant test solutions, reverse phase HPLC; format: physicochemical; conditions: room temperature
# Protocol: Solubility studies were performed at room temperature by transferring 5 ml of test solution (surfactant in water optionally containing a bulking agent, a buffer or a stabilizing agent) and 50 mg of Com 6(a) into a glass test tube. The test tubes were agitated overnight and examined for excess solid. Test tubes containing excess solid were removed for analysis. […] All samples were allowed to stand 1 h, supernatant was removed, filtered and analyzed by reverse phase HPLC to determine the potency of Com 6(a) per Ml of solution.
# [2] = Stability of solution formulations, related substances by reverse phase HPLC, storage at 40° C.; format: physicochemical
# Protocol: The stability of solution and freeze-dried formulations was evaluated by monitoring a sample of the formulation for the percent increase in related substances by reverse phase HPLC at initial, 2 weeks and 4 weeks of storage at 40° C.
structure (smiles),measurement,setting,value
"CCCCCOc1ccc(-c2ccc(-c3ccc(C(=O)NC4CC(O)C(O)NC(=O)C5C(O)C(C)CN5C(=O)C(C(C)O)NC(=O)C(C(O)C(O)c5ccc(O)cc5)NC(=O)C5CC(O)CN5C(=O)C(C(C)O)NC4=O)cc3)cc2)cc1 (stereo not drawn) [Compound 6(a)] ({pTerphenylCO(4''-OnC5H11)}-[ξOrn(4,5-diOH)]T[Hyp][ξhTyr(βξ-OH,γξ-OH)]T[ξPro(3ξ-OH,4ξ-Me)]; lactam 1-C; configuration not given here)",Comp6(a) Potency (solubility),[1]; Poly 20 [5]/Poly 80 [5],4800 µg/mL
same,Comp6(a) Potency (solubility),[1]; Poly 20 [5]/Poly 80 [10],8000 µg/mL
same,Comp6(a) Potency (solubility),[1]; Poly 20 [5]/pluronic F68 [10],1130 µg/mL
same,Comp6(a) Potency (solubility),[1]; Poly 80 [5],1000 µg/mL
same,Comp6(a) Potency (solubility),[1]; Poly 80 [10],4400 µg/mL
same,Comp6(a) Potency (solubility),[1]; Poly 80 [15],7200 µg/mL
same,Comp6(a) Potency (solubility),[1]; Poly 80 [20]/sodium taurodeoxycholate [20],43120 µg/mL
same,Comp6(a) Potency (solubility),[1]; Poly 80 [25],13200 µg/mL
same,Comp6(a) Potency (solubility),[1]; Sur None,<100 µg/mL
same,Comp6(a) Potency (solubility),[1]; ethoxylated castor oil (cremophor EL) [25],11000 µg/mL
same,Percent Related Substances,"[2]; 6(a) 1 mg/ml, Poly 80(25), Ace(0.6), Man(50), 0 wks",3.15%
same,Percent Related Substances,"[2]; 6(a) 1 mg/ml, Poly 80(25), Ace(0.6), Man(50), 2 wks",11.37%
same,Percent Related Substances,"[2]; 6(a) 1 mg/ml, Poly 80(25), Ace(0.6), Man(50), 4 wks",19.44%
same,Percent Related Substances,"[2]; 6(a) 1 mg/ml, Poly 80(25), Ace(3), Man(50), 0 wks",3.33%
same,Percent Related Substances,"[2]; 6(a) 1 mg/ml, Poly 80(25), Ace(3), Man(50), 2 wks",12.20%
same,Percent Related Substances,"[2]; 6(a) 1 mg/ml, Poly 80(25), Ace(3), Man(50), 4 wks",18.29%
same,Percent Related Substances,"[2]; 6(a) 1 mg/ml, Poly 80(25), Ace(6), Man(50), 0 wks",3.27%
same,Percent Related Substances,"[2]; 6(a) 1 mg/ml, Poly 80(25), Ace(6), Man(50), 2 wks",11.07%
same,Percent Related Substances,"[2]; 6(a) 1 mg/ml, Poly 80(25), Ace(6), Man(50), 4 wks",19.59%
same,Percent Related Substances,"[2]; 6(a) 1 mg/ml, Poly 80(25), Cit(1.9), Man(50), 0 wks",3.42%
same,Percent Related Substances,"[2]; 6(a) 1 mg/ml, Poly 80(25), Cit(1.9), Man(50), 2 wks",8.91%
same,Percent Related Substances,"[2]; 6(a) 1 mg/ml, Poly 80(25), Cit(1.9), Man(50), 4 wks",18.04%
same,Percent Related Substances,"[2]; 6(a) 1 mg/ml, Poly 80(25), Cit(9.6), Man(50), 0 wks",3.36%
same,Percent Related Substances,"[2]; 6(a) 1 mg/ml, Poly 80(25), Cit(9.6), Man(50), 2 wks",9.25%
same,Percent Related Substances,"[2]; 6(a) 1 mg/ml, Poly 80(25), Cit(9.6), Man(50), 4 wks",17.29%
same,Percent Related Substances,"[2]; 6(a) 1 mg/ml, Poly 80(25), Cit(19.2), Man(50), 0 wks",3.47%
same,Percent Related Substances,"[2]; 6(a) 1 mg/ml, Poly 80(25), Cit(19.2), Man(50), 2 wks",9.70%
same,Percent Related Substances,"[2]; 6(a) 1 mg/ml, Poly 80(25), Cit(19.2), Man(50), 4 wks",18.02%
same,Percent Related Substances,"[2]; 6(a) 10 mg/ml, Poly 80(5) + Poly 20(20), Ace(6), 0 wks",2.67%
same,Percent Related Substances,"[2]; 6(a) 10 mg/ml, Poly 80(5) + Poly 20(20), Ace(6), 2 wks",9.77%
same,Percent Related Substances,"[2]; 6(a) 10 mg/ml, Poly 80(5) + Poly 20(20), Ace(6), 4 wks",15.57%
same,Percent Related Substances,"[2]; 6(a) 10 mg/ml, Poly 80(15) + Poly 20(10), Ace(6), 0 wks",2.70%
same,Percent Related Substances,"[2]; 6(a) 10 mg/ml, Poly 80(15) + Poly 20(10), Ace(6), 2 wks",10.55%
same,Percent Related Substances,"[2]; 6(a) 10 mg/ml, Poly 80(15) + Poly 20(10), Ace(6), 4 wks",15.34%
same,Percent Related Substances,"[2]; 6(a) 10 mg/ml, Poly 80(20) + Poly 20(5), Ace(6), 0 wks",2.65%
same,Percent Related Substances,"[2]; 6(a) 10 mg/ml, Poly 80(20) + Poly 20(5), Ace(6), 2 wks",11.06%
same,Percent Related Substances,"[2]; 6(a) 10 mg/ml, Poly 80(20) + Poly 20(5), Ace(6), 4 wks",15.44%
same,Percent Related Substances,"[2]; 6(a) 10 mg/ml, Poly 80(25) only, no buffer, 0 wks",3.62%
same,Percent Related Substances,"[2]; 6(a) 10 mg/ml, Poly 80(25) only, no buffer, 2 wks",18.71%
same,Percent Related Substances,"[2]; 6(a) 10 mg/ml, Poly 80(25) only, no buffer, 4 wks",27.91%
same,Percent Related Substances,"[2]; 6(a) 10 mg/ml, Poly 80(25), Ace(3), 0 wks",2.51%
same,Percent Related Substances,"[2]; 6(a) 10 mg/ml, Poly 80(25), Ace(3), 2 wks",9.46%
same,Percent Related Substances,"[2]; 6(a) 10 mg/ml, Poly 80(25), Ace(3), 4 wks",14.39%
same,Percent Related Substances,"[2]; 6(a) 10 mg/ml, Poly 80(25), Ace(6), co-solvent 20% PEG400, 0 wks",2.83%
same,Percent Related Substances,"[2]; 6(a) 10 mg/ml, Poly 80(25), Ace(6), co-solvent 20% PEG400, 2 wks",9.69%
same,Percent Related Substances,"[2]; 6(a) 10 mg/ml, Poly 80(25), Ace(6), co-solvent 20% PEG400, 4 wks",14.35%
same,Percent Related Substances,"[2]; 6(a) 10 mg/ml, Poly 80(25), Ace(6), co-solvent 20% PPG, 0 wks",2.71%
same,Percent Related Substances,"[2]; 6(a) 10 mg/ml, Poly 80(25), Ace(6), co-solvent 20% PPG, 2 wks",10.58%
same,Percent Related Substances,"[2]; 6(a) 10 mg/ml, Poly 80(25), Ace(6), co-solvent 20% PPG, 4 wks",13.40%
same,Percent Related Substances,"[2]; 6(a) 10 mg/ml, Poly 80(25), Ace(6), co-solvent 40% PEG400, 0 wks",2.57%
same,Percent Related Substances,"[2]; 6(a) 10 mg/ml, Poly 80(25), Ace(6), co-solvent 40% PEG400, 2 wks",10.38%
same,Percent Related Substances,"[2]; 6(a) 10 mg/ml, Poly 80(25), Ace(6), co-solvent 40% PEG400, 4 wks",13.36%
same,Percent Related Substances,"[2]; 6(a) 10 mg/ml, Poly 80(25), Ace(6), co-solvent 40% PPG, 0 wks",2.72%
same,Percent Related Substances,"[2]; 6(a) 10 mg/ml, Poly 80(25), Ace(6), co-solvent 40% PPG, 2 wks",9.84%
same,Percent Related Substances,"[2]; 6(a) 10 mg/ml, Poly 80(25), Ace(6), co-solvent 40% PPG, 4 wks",12.65%
